Data published in PubChem BioAssay (NCI).
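Compound exposure: 48 hours, 5 concentrations, 96-well plates. GI50: concentration for 50% inhibition of growth. TGI: total growth inhibition.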

Assays:
Assay in all cases: NCI anticancer screen, dose series, 48 h
[1] = tested on: NCI-H23 lung
[2] = tested on: SK-MEL-5 melanoma
[3] = tested on: ACHN renal
[4] = tested on: OVCAR-5 ovarian
[5] = tested on: HCT-15 colon
[6] = tested on: SN12C renal
[7] = tested on: IGROV1 ovarian
[8] = tested on: U251 CNS
[9] = tested on: SK-MEL-2 melanoma
[10] = tested on: HL-60(TB) leukemia
[11] = tested on: UACC-257 melanoma
[12] = tested on: A549 NSCLC
[13] = tested on: OVCAR-4 ovarian
[14] = tested on: UO-31 renal
[15] = tested on: EKVX NSCLC
[16] = tested on: RPMI-8226 leukemia
[17] = tested on: MDA-MB-231 breast
[18] = tested on: NCI-H460 lung
[19] = tested on: MALME-3M melanoma
[20] = tested on: CCRF-CEM leukemia
[21] = tested on: MDA-MB-435
[22] = tested on: SF-539 CNS
[23] = tested on: 786-0 renal
[24] = tested on: NCI/ADR-RES ovarian
[25] = tested on: SF-268 CNS
[26] = tested on: NCI-H226 lung
[27] = tested on: HT29 colon
[28] = tested on: DU-145 prostate
[29] = tested on: HCC-2998 colon
[30] = tested on: TK-10 renal
[31] = tested on: RXF 393 renal
[32] = tested on: SR leukemia
[33] = tested on: SNB-75 CNS
[34] = tested on: LOX IMVI melanoma
[35] = tested on: SNB-19 CNS
[36] = tested on: COLO 205 colon
[37] = tested on: MDA-MB-468 breast
[38] = tested on: NCI-H522 lung
[39] = tested on: K-562 leukemia
[40] = tested on: UACC-62 melanoma
[41] = tested on: T-47D breast
[42] = tested on: HCT-116 colon
[43] = tested on: M14 melanoma
[44] = tested on: CAKI-1 renal
[45] = tested on: A498 renal
[46] = tested on: OVCAR-8 ovarian
[47] = tested on: HOP-92 NSCLC
[48] = tested on: SK-MEL-28 melanoma
[49] = tested on: KM12 colon
[50] = tested on: PC-3 prostate
[51] = tested on: BT-549 breast
[52] = tested on: MCF7 breast
[53] = tested on: OVCAR-3 ovarian
[54] = tested on: HOP-62 NSCLC
[55] = tested on: SW-620 colon
[56] = tested on: SF-295 CNS
[57] = tested on: MOLT-4 leukemia
[58] = tested on: HS 578T breast
[59] = tested on: SK-OV-3 ovarian

CCOc1ccccc1[C@H]1C(C(=O)c2ccc(Cl)cc2)C2(N[C@@H]1c1ccccc1)C(=O)Nc1ccc(Cl)cc12 (stereo partly drawn)
GI50 [1]: 17.3 µM
TGI [1]: > 18.8 µM
GI50 [2]: > 18.8 µM
TGI [2]: > 18.8 µM
GI50 [3]: 8.05 µM
TGI [3]: > 18.8 µM
GI50 [4]: > 18.8 µM
TGI [4]: > 18.8 µM
GI50 [5]: 13.8 µM
TGI [5]: > 18.8 µM
GI50 [6]: 13.8 µM
TGI [6]: > 18.8 µM
GI50 [7]: 7.98 µM
TGI [7]: > 18.8 µM
GI50 [8]: > 18.8 µM
TGI [8]: > 18.8 µM
GI50 [9]: > 18.8 µM
TGI [9]: > 18.8 µM
GI50 [10]: 12.8 µM
TGI [10]: > 18.8 µM
GI50 [11]: 8.85 µM
TGI [11]: > 18.8 µM
GI50 [12]: 8.86 µM
TGI [12]: > 18.8 µM
GI50 [13]: > 18.8 µM
TGI [13]: > 18.8 µM
GI50 [14]: 5.3 µM
TGI [14]: > 18.8 µM
GI50 [15]: 18.6 µM
TGI [15]: > 18.8 µM
GI50 [16]: 10.6 µM
TGI [16]: > 18.8 µM
GI50 [17]: 15 µM
TGI [17]: > 18.8 µM
GI50 [18]: 7.56 µM
TGI [18]: > 18.8 µM
GI50 [19]: > 18.8 µM
TGI [19]: > 18.8 µM
GI50 [20]: 11.4 µM
TGI [20]: > 18.8 µM
GI50 [21]: 13.9 µM
TGI [21]: > 18.8 µM
GI50 [22]: > 18.8 µM
TGI [22]: > 18.8 µM
GI50 [23]: > 18.8 µM
TGI [23]: > 18.8 µM
GI50 [24]: > 18.8 µM
TGI [24]: > 18.8 µM
GI50 [25]: 10.5 µM
TGI [25]: > 18.8 µM
GI50 [26]: > 18.8 µM
TGI [26]: > 18.8 µM
GI50 [27]: 14.4 µM
TGI [27]: > 18.8 µM
GI50 [28]: > 18.8 µM
TGI [28]: > 18.8 µM
GI50 [29]: 6.18 µM
TGI [29]: > 18.8 µM
GI50 [30]: > 18.8 µM
TGI [30]: > 18.8 µM
GI50 [31]: 16.2 µM
TGI [31]: > 18.8 µM
GI50 [32]: 5.28 µM
TGI [32]: > 18.8 µM
GI50 [33]: 2.84 µM
TGI [33]: > 18.8 µM
GI50 [34]: 9.63 µM
TGI [34]: > 18.8 µM
GI50 [35]: > 18.8 µM
TGI [35]: > 18.8 µM
GI50 [36]: > 18.8 µM
TGI [36]: > 18.8 µM
GI50 [37]: 4.84 µM
TGI [37]: > 18.8 µM
GI50 [38]: 8.03 µM
TGI [38]: > 18.8 µM
GI50 [39]: 6.2 µM
TGI [39]: > 18.8 µM
GI50 [40]: 3.93 µM
TGI [40]: > 18.8 µM
GI50 [41]: 7.73 µM
TGI [41]: > 18.8 µM
GI50 [42]: 7.48 µM
TGI [42]: > 18.8 µM
GI50 [43]: 12.3 µM
TGI [43]: > 18.8 µM
GI50 [44]: 4.11 µM
TGI [44]: > 18.8 µM
GI50 [45]: > 18.8 µM
TGI [45]: > 18.8 µM
GI50 [46]: 18.3 µM
TGI [46]: > 18.8 µM
GI50 [47]: 13 µM
TGI [47]: > 18.8 µM
GI50 [48]: > 18.8 µM
TGI [48]: > 18.8 µM
GI50 [49]: 9.75 µM
TGI [49]: > 18.8 µM
GI50 [50]: 5.51 µM
TGI [50]: > 18.8 µM
GI50 [51]: > 18.8 µM
TGI [51]: > 18.8 µM
GI50 [52]: 6.01 µM
TGI [52]: > 18.8 µM
GI50 [53]: 7.8 µM
TGI [53]: > 18.8 µM
GI50 [54]: > 18.8 µM
TGI [54]: > 18.8 µM
GI50 [55]: 13.4 µM
TGI [55]: > 18.8 µM
GI50 [56]: 7.53 µM
TGI [56]: > 18.8 µM
GI50 [57]: 5.36 µM
TGI [57]: > 18.8 µM
GI50 [58]: > 18.8 µM
TGI [58]: > 18.8 µM
GI50 [59]: > 18.8 µM
TGI [59]: > 18.8 µM
